Results reported in patent publication US20220395500A1, “SMALL MOLECULE ACTIVATORS OF INTERFERON REGULATORY FACTOR 3 AND METHODS OF USE THEREOF” (Neuralexo, Inc., priority 2020, published 2022).
Like-named read-outs stand apart in the source and are kept apart here.

Assays:
Type in all cases: cell-based, mouse
[1] = test system: cytokines in mBMDMs (wild-type and IRF3 KO); test: Cytokine induction in mBMDMs (20-plex ProcartaPlex, Luminex); conditions: for cytokine induction in mBMDMs (IL6, MCP3, Rantes, TNFa, MCP1, Mip1b, Mip1a, Gro-alpha) vs vehicle: wild-type and IRF3 KO mBMDMs
Method: (§1) Cytokine induction is shown for both wild-type mouse mBMDMs and IRF3 KO mouse mBMDMs. Cytokine expression was measured using a cytokine 20-plex mouse ProcartaPlex kit (Invitrogen, Carlsbad, Calif.) for labeling of multiple cytokines within an individual sample and run on a Luminex (Austin, Tex.) 200 instrument. Data is expressed as pg/ml. Shown are group means+/−SEM; […], **p<0.01, ***p<0.001, ****p<0.0001.
as §1, with “(Invitrogen)” for “(Invitrogen, Carlsbad, Calif.)”, “Luminex” for “Luminex (Austin, Tex.)”
as §1, with “expression” for “expression was”, “(Invitrogen)” for “(Invitrogen, Carlsbad, Calif.)”, “Luminex” for “Luminex (Austin, Tex.)”
Cytokine expression at each of FIGS. 22A-23B was monitored using a cytokine 20-plex mouse ProcartaPlex kit (Invitrogen, Carlsbad, Calif.) for labeling of multiple cytokines within an individual sample and run on a Luminex 200 instrument, and is expressed at FIGS. 22A-23B as pg/ml.

[2] = test system: IRF-Lucia luciferase reporter (ISRE) in J774-Dual cells; test: J774-Dual IRF-Lucia luciferase reporter assay (ISRE activation); conditions: for EC50: Mus musculus, read-out: J774 IRF EC50
How it was run: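 Mouse J774-Dual macrophages, seeded in growth medium 24 h at 37 °C, 5% CO2 before treatment; secreted IRF-Lucia (ISRE-driven) and NF-κB-SEAP read with QUANTI-Luc and QUANTI-Blue. EC50 and CC50 from 8-point dose-response, cytotoxicity by CellTiter-Glo; ISRE:NF-κB ratio calculated.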

[3] = test system: NF-κB-SEAP reporter in J774-Dual cells; test: J774-Dual NF-κB-SEAP reporter assay; conditions: Mus musculus, read-out: J774 NFkB EC50
Method: First, optimal assay conditions and assay quality in 384-well format were determined. As mentioned, the mouse macrophage J774 cell line (J774-Dual, InvivoGen) stably transfected with the same inducible reporters described above (e.g., IRF-Lucia luciferase and NF-κB-SEAP) was used. The responsiveness of the J774-Dual cell line was investigated in an array of assay conditions to obtain sensitive and reproducible results for the activation of the IRF and NF-κB reporters. An optimal plating density and conditions for these cells was established for these cells in a 384-well format. Assay work-flow is similar to that discussed above for the THP1-Dual assay without a need for cell differentiation. Thus, cells are seeded directly in growth medium and incubated at 37° C. in a 5% C02 incubator for 24 hours prior to the programmed treatments being added as described herein.
The primary high throughput screen used the HTS platform of human THP1 monocyte cells containing the IRF-Lucia luciferase and NFκB-SEAP (secreted embryonic alkaline phosphatase) dual reporter (THP1-Dual, Invivogen), enabling the simultaneous study of the IRF and NFκB signaling pathways respectively. As discussed, the Lucia luciferase reporter gene is under the control of an ISG54 (interferon-stimulated gene) minimal promoter in conjunction with five interferon-stimulated response elements (ISRE). The SEAP gene is driven by an IFNβ minimal promoter fused to five copies of the NFκB consensus transcriptional response element and three copies of the c-Rel binding site. Both IRF-Lucia luciferase and NFκB-SEAP reporter proteins are secreted and readily measurable in the cell culture supernatant when using QUANTI-Luc™ and QUANTI-Blue™ detection reagents, respectively. Identified “hits” were confirmed in a secondary screen with an 8-point dose response curve. Hits were further screened for activity in the mouse using the mouse J774 macrophage-like cell line containing the identical reporter constructs (J774-Dual, Invivogen).
The OTRADI Small Molecule Library of approximately 246,000 diverse compounds (see below for description) was screened using the THP1-Dual based HTS platform described above. All transfer steps in the screen are fully automated, thus reducing variability. Primary screening included a single data point or dose for each molecule. After data normalization was applied for each assay run, “hit” selection was performed on the plates that pass the quality control (QC) criterion. Hits were defined as samples having values above the activity cutoff determined based on noise level of the assay to reduce false positive rates. In the pilot study discussed above this activity value was >3σ above the ISRE mean with the added criteria of NFκB activation being lower than […] from the mean to identify IRF selective compounds. The ratio of ISRE:NFκB activity was also calculated as a selectivity index for prioritizing hit selection. Primary hits underwent secondary screening to determine the 50% effective concentration (EC50) and 50% cytotoxic concentration (CC50) of these agents using an 8-point dose-response curve in the human THP1-Dual cells. Cytotoxicity was measured in the plate using Cell Titer Glo (Promega). Identified candidate compounds were further screened (orthogonal screen) for cross species activity in the validated mouse J774-Dual assay using an 8-point dose-response format to determine EC50 and CC50 values as well as ISRE:NFκB ratios. A general process flow for the experimental design laid out above is depicted at FIG. 12.

J774-Dual cytotoxicity = conditions: mouse, J774-Dual cells, read-out: J774 cytotox CC50
How it was run: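 Orthogonal cross-species screen in mouse J774-Dual cells using 8-point dose-response format. Cytotoxicity measured in-plate by CellTiter-Glo luminescence, giving CC50 alongside EC50 and ISRE:NFκB ratios.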

[4] = J774, Mouse Reporter Cell Line, 8-point dose response
[5] = Mouse Reporter Cell Line J774, at peak
[6] = J774, Mouse Reporter Cell Line J774

Structure (SMILES) | EC50 [2, 6] | EC50 [3, 6] | J774 IRF % activation at peak [2, 5] | CC50 (J774-Dual cytotoxicity; Mouse Reporter Cell Line J774) | other results
CCOc1cccc(COc2ccc(C(=O)Nc3ccc(N4CCN(C(=O)c5cccs5)CC4)cc3)cc2)c1 [NA-42, 4-((3-ethoxybenzyl)oxy)-N-(4-(4-(thiophene-2-carbonyl)piperazin-1-yl)phenyl)benzamide] |  |  |  |  | off-target inflammatory activity in mBMDMs [1]: minimal off-target inflammatory activity; cytokine induction in mBMDMs (IL6, MCP3, Rantes, TNFa, MCP1, Mip1b, Mip1a, Gro-alpha) vs vehicle [1]: IRF3 dependent cytokine induction
COc1ccc(C(=O)Nc2cc(-c3nc4cc(C)c(C)cc4o3)ccc2C)cc1[N+](=O)[O-] [ND-13, N-(5-(5,6-dimethylbenzo[d]oxazol-2-yl)-2-methylphenyl)-4-methoxy-3-nitrobenzamide] |  |  |  |  | off-target inflammatory activity in mBMDMs [1]: minimal off-target inflammatory activity; cytokine induction in mBMDMs (IL6, MCP3, Rantes, TNFa, MCP1, Mip1b, Mip1a, Gro-alpha) vs vehicle [1]: IRF3 dependent cytokine induction
O=C(Nc1ccc(N2CCN(C(=O)c3cccs3)CC2)cc1)c1cccc2c(Br)cccc12 [NA-21, 5-bromo-N-{4-[4-(2-thienylcarbonyl)-1-piperazinyl]phenyl}-1-naphthamide] |  |  |  |  | J774 IRF % activation at peak ([2]; Mouse Reporter Cell Line): 38.86%; EC50 [2, 4]: 1.01 µM; EC50 [3, 4]: 1.05 µM; CC50 (J774-Dual cytotoxicity; Mouse Reporter Cell Line): 63.8 µM
O=C(Nc1ccc(N2CCN(C(=O)c3cccs3)CC2)cc1)c1ccc(Cl)c2ccccc12 [NA13] |  |  |  |  | J774 IRF % activation at peak ([2]; Mouse Reporter Cell Line): 3.434%; EC50 [2, 4]: 0.821 µM; EC50 [3, 4]: ~2.86 µM; CC50 (J774-Dual cytotoxicity; Mouse Reporter Cell Line): > 25 µM

More lines, main results first:

EC50 [2, 6] | EC50 [3, 6] | Structure (SMILES) | J774 IRF % activation at peak [2, 5] | CC50 (J774-Dual cytotoxicity; Mouse Reporter Cell Line J774) | other results
4.81 µM | 11.4 µM | COc1ccc(C(=O)Nc2cc(-c3nc4cc(C(C)C)ccc4o3)ccc2C)cc1[N+](=O)[O-] [ND-2] | 141.80% | 65.8 µM | 
8.82 µM | 8.75 µM | COc1ccc(C(=O)Nc2nc(-c3cc4ccccc4oc3=O)cs2)cc1 [ND-1] | 28.40% | > 25 µM | 
6.57 µM | 19.9 µM | Cc1ccc(NC(=O)c2cc(NC(=O)c3ccccc3)ccc2N2CCOCC2)cc1Cl [NB-1] | 54.52% | > 111 µM | 
